{"source": "ChEMBL document CHEMBL3585300", "about": "“Inhibition of Cathepsin K: A Novel and Promising Treatment for Osteoporosis” (ACS Med Chem Lett, 2015)", "key": {"[1]": {"biological_target": "T1, Cathepsin F (Homo sapiens) (UniProt Q9UBX1)", "T1 sequence (whole entry)": "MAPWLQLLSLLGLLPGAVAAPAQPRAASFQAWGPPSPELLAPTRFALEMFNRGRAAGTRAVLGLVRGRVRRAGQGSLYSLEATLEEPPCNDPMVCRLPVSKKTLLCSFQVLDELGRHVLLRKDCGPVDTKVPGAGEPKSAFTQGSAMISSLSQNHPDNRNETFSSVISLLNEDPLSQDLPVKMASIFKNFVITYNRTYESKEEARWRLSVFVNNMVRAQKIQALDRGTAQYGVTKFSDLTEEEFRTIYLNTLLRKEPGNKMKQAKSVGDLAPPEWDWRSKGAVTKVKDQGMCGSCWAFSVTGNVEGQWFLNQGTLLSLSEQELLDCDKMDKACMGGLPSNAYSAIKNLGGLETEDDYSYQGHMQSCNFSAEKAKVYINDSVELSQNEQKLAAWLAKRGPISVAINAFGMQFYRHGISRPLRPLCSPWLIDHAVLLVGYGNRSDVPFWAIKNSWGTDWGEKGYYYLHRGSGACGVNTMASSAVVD", "assay": "Inhibition of human cathepsin F incubated for 15 mins using Z-Phe-Arg-AMC substrate by spectrofluorometry"}, "[2]": {"biological_target": "T2, Cathepsin K (Homo sapiens) (UniProt P43235)", "T2 sequence (whole entry)": "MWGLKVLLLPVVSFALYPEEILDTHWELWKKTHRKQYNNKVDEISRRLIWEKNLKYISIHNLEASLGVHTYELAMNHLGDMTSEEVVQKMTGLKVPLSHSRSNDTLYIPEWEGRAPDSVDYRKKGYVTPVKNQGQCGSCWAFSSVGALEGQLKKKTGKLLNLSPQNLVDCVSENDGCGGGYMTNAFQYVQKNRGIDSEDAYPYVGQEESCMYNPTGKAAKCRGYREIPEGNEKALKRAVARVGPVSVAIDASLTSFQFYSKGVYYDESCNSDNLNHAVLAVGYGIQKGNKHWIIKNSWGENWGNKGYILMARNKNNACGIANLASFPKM", "assay": "Inhibition of human cathepsin K incubated for 15 mins using Z-Leu-Arg-AMC substrate by spectrofluorometry"}}}
{"smiles": "N#CC1(NC(=O)[C@@H]2CCCC[C@H]2c2nc(C3CC(F)(F)C3)sc2-c2ccc(N3CCS(=O)(=O)CC3)cc2)CC1", "values": [{"measurement": "IP", "setting": "[1]", "result": 1000, "unit": "nM"}, {"measurement": "IP", "setting": "[2]", "result": 5.8, "unit": "nM"}]}
{"smiles": "N#CC1(NC(=O)[C@@H]2CCCC[C@H]2c2nc(-c3cccc(C4CCOCC4)c3)sc2-c2ccc(N3CCS(=O)(=O)CC3)cc2)CC1", "values": [{"measurement": "IP", "setting": "[1]", "result": 3330, "unit": "nM"}, {"measurement": "IP", "setting": "[2]", "result": 1.7, "unit": "nM"}]}
{"smiles": "CC(C)(C)c1nc([C@@H]2CCCC[C@H]2C(=O)NCC#N)c(-c2ccc(N3CCS(=O)(=O)CC3)cc2)s1", "values": [{"measurement": "IP", "setting": "[1]", "result": 851, "unit": "nM"}, {"measurement": "IP", "setting": "[2]", "result": 0.7, "unit": "nM"}]}
{"smiles": "C[C@@H](C#N)NC(=O)[C@@H]1C[C@@H](F)CC[C@H]1c1nc(C2(C(F)(F)F)CC2)sc1-c1ccc(N2CCS(=O)(=O)CC2)cc1", "values": [{"measurement": "IP", "setting": "[1]", "result": 3140, "unit": "nM"}, {"measurement": "IP", "setting": "[2]", "result": 2.8, "unit": "nM"}]}
